Laboratory results: patent US20240116928A1 (Gilead Sciences, Inc., priority 2022, published 2024)

Columns and labels:
CD73 [1] = target: T1, CD73 (Homo sapiens, UniProt P21589); assay: MDA-MB-231 Cell Based CD73 Activity Assay (DMEM); design: endogenous in cells; host or cells: MDA-MB-231-GFP; settings: MDA-MB-231-GFP cells, DMEM with 10% human plasma, overnight compound treatment, 200 uM AMP, 100 mins
T1 sequence (P21589 27-549): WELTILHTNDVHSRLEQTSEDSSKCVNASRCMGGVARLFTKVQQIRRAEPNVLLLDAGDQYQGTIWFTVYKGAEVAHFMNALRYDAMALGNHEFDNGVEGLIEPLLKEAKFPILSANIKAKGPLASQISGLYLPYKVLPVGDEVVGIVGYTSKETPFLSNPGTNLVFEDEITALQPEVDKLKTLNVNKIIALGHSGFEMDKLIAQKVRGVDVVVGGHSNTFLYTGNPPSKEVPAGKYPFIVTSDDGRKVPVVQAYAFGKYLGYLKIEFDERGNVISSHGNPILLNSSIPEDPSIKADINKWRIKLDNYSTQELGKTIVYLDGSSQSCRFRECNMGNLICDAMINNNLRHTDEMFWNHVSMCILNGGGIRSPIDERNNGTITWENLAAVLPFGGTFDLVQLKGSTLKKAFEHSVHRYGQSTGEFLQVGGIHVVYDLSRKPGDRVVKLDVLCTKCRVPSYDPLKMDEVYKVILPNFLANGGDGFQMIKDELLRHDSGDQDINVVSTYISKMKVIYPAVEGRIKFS
Experimental: Cells were plated into assay plate with compounds pre-spotted, for an overnight compound treatment. 50 uL of 400 uM AMP (final concentration will be 200 uM) was added using Bio-tek dispenser. Plates were incubated for 100 mins. 20 uL of supernatant was transferred into 384-well NUNC plate pre-filled with 60 ul Quench buffer (80% organic and 20% water+0.1% FA) with internal standard. The plates were spun down at 4500 rpm for 20 mins, then 20 ul of supernatant was transferred to another Nunc plate prefilled with 80 ul of water. The samples were analyzed using Rapid fire.

CD73 [2] = target: T1, CD73; assay: CD73 Biochemical IC50 Assay; settings: CD73 enzyme (R&D system) final 0.3 nM, final AMP 15 uM, 60 mins incubation, Rapid fire
Experimental: CD73 Biochemical IC50 Assay
Compound serial dilutions were pre-spotted into Thermo Nunc assay plate. 50 μL CD73 enzyme buffer (CD73 purchased from R&D system=0.6 nM, 25 mM Tris, pH 7.4, 5 mM MgCl2, 1 mM NaH2PO4) was added into the assay plate and incubated for 15 mins. […] After incubation for 60 mins, the supernatant 20 uL was transferred into 384-well NUNC plate pre-filled with 60 ul Quench buffer (80% organic and 20% water+0.1% FA) with internal standard. The plate was spun down at 4500 rpm for 20 mins, then 20 μl of supernatant was transferred to another Nunc plate prefilled with 80 μl of water. The samples were run using Rapid fire.

| EC50 (CD73 [1]) [nM] | IC50 (CD73 [2]) [nM] | Structure (SMILES) |
| --- | --- | --- |
| > 50 | 8.7 | Cc1nc(-c2c[nH]c(=O)[nH]c2=O)cc(N2C[C@H](Oc3ccncc3)C(F)(F)C2)n1 [Example 20, (S)-6-(3,3-difluoro-4-(pyridin-4-yloxy)pyrrolidin-1-yl)-2-methyl-[4,5′-bipyrimidine]-2′,4′ (1′H,3′H)-dione] |
| 39.7 | 4.97 | Cc1nc(-c2c[nH]c(=O)[nH]c2=O)cc(N2C[C@H](Oc3ccnc(C(F)F)c3)C(F)(F)C2)n1 [Example 21, (S)-6-(4-((2-(difluoromethyl)pyridin-4-yl)oxy)-3,3-difluoropyrrolidin-1-yl)-2-methyl-[4,5′-bipyrimidine]-2′,4′ (1′ H,3′ H)-dione] |
| > 50 | 14.4 | Cc1nc(-c2c[nH]c(=O)[nH]c2=O)cc(N2C[C@H](Oc3cc4c(cnn4CC(F)(F)F)cc3F)C(F)(F)C2)n1 [Example 23, (S)-6-(3,3-difluoro-4-((5-fluoro-1-(2,2,2-trifluoroethyl)-1H-indazol-6-yl)oxy)pyrrolidin-1-yl)-2-methyl-[4,5′-bipyrimidine]-2′,4′ (1′H,3′H)-dione] |
| > 50 | 7.67 | Cc1cc(O[C@H]2CN(c3cc(-c4c[nH]c(=O)[nH]c4=O)nc(C)n3)CC2(F)F)ccn1 [Example 24, (S)-6-(3,3-difluoro-4-((2-methylpyridin-4-yl)oxy)pyrrolidin-1-yl)-2-methyl-[4,5′-bipyrimidine]-2′,4′ (1′H,3′H)-dione] |
| 5.31 | 4 | Cc1nc(-c2c[nH]c(=O)[nH]c2=O)cc(N2C[C@H](Oc3cc(C4(C(F)(F)F)CC4)ccn3)C(F)(F)C2)n1 [Example 25, (S)-6-(3,3-difluoro-4-((4-(1-(trifluoromethyl)cyclopropyl)pyridin-2-yl)oxy)pyrrolidin-1-yl)-2-methyl-[4,5′-bipyrimidine]-2′,4′ (1′H,3′H)-dione] |
| > 50 | 7.06 | Cc1nc(OCC(F)(F)COC(=O)NC(C)C)cc(-c2c[nH]c(=O)[nH]c2=O)n1 [Example 26] |
| 6.38 | 7.16 | Cc1nc(-c2c[nH]c(=O)[nH]c2=O)cc(N2C[C@H](Oc3cc4c(cn3)c(C)nn4CC(F)(F)F)C(F)(F)C2)n1 [Example 28, (S)-6-(3,3-difluoro-4-((3-methyl-1-(2,2,2-trifluoroethyl)-1H-pyrazolo[4,3-c]pyridin-6-yl)oxy)pyrrolidin-1-yl)-2-methyl-[4,5′-bipyrimidine]-2′,4′ (1′H,3′H)-dione] |

The next lines start with the molecule.

| Structure (SMILES) | EC50 (CD73 [1]) [nM] | IC50 (CD73 [2]) [nM] |
| --- | --- | --- |
| CCc1nc(-c2c[nH]c(=O)[nH]c2=O)cc(N2C[C@H](Oc3cc4c(cn3)cnn4CC(F)(F)F)C(F)(F)C2)n1 [Example 1, (S)-6-(3,3-difluoro-4-((1-(2,2,2-trifluoroethyl)-1H-pyrazolo[4,3-c]pyridin-6-yl)oxy)pyrrolidin-1-yl)-2-ethyl-[4,5′-bipyrimidine]-2′,4′ (1′H,3′H)-dione] | 33.7 | 12.7 |
| O=c1[nH]cc(-c2cc(N3C[C@H](Oc4cc5c(cn4)cnn5CC(F)(F)F)C(F)(F)C3)nc(C3CC3)n2)c(=O)[nH]1 [Example 3, (S)-2-cyclopropyl-6-(3,3-difluoro-4-((1-(2,2,2-trifluoroethyl)-1H-pyrazolo[4,3-c]pyridin-6-yl)oxy)pyrrolidin-1-yl)-[4,5′-bipyrimidine]-2′,4′ (1′H,3′H)-dione] | > 50 | 25.7 |
| O=c1[nH]cc(-c2cc(N3C[C@H](Oc4cc5c(cn4)cnn5CC(F)(F)F)C(F)(F)C3)nc(C(F)(F)F)n2)c(=O)[nH]1 [Example 6, (S)-6-(3,3-difluoro-4-((1-(2,2,2-trifluoroethyl)-1H-pyrazolo[4,3-c]pyridin-6-yl)oxy)pyrrolidin-1-yl)-2-(trifluoromethyl)-[4,5′-bipyrimidine]-2′,4′ (1′H,3′H)-dione] | 35.7 | 7.14 |
| Cc1nc(-c2c[nH]c(=O)[nH]c2=O)cc(N2C[C@H](Oc3ccnc(C4(C(F)(F)F)CC4)c3)C(F)(F)C2)n1 [Example 7, (S)-6-(3,3-difluoro-4-((2-(1-(trifluoromethyl)cyclopropyl)pyridin-4-yl)oxy)pyrrolidin-1-yl)-2-methyl-[4,5′-bipyrimidine]-2′,4′ (1′H,3′H)-dione] | 1.07 | 4.28 |
| Cc1cc(N2C[C@H](Oc3cc4c(cn3)cnn4CC(F)(F)F)C(F)(F)C2)cc(-c2c[nH]c(=O)[nH]c2=O)n1 [Example 10, (S)-5-(4-(3,3-difluoro-4-((1-(2,2,2-trifluoroethyl)-1H-pyrazolo[4,3-c]pyridin-6-yl)oxy)pyrrolidin-1-yl)-6-methylpyridin-2-yl)pyrimidine-2,4(1H,3H)-dione] | 49 | 41 |
| O=c1[nH]cc(-c2cc(N3C[C@H](Oc4cc5c(cn4)cnn5CC(F)(F)F)C(F)(F)C3)cc(C(F)(F)F)n2)c(=O)[nH]1 [Example 11, (S)-5-(4-(3,3-difluoro-4-((1-(2,2,2-trifluoroethyl)-1H-pyrazolo[4,3-c]pyridin-6-yl)oxy)pyrrolidin-1-yl)-6-(trifluoromethyl)pyridin-2-yl)pyrimidine-2,4(1H,3H)-dione] | 22.5 | 12.8 |
| COc1cc(N2C[C@H](Oc3cc4c(cn3)cnn4CC(F)(F)F)C(F)(F)C2)cc(-c2c[nH]c(=O)[nH]c2=O)n1 [Example 12, (S)-5-(4-(3,3-difluoro-4-((1-(2,2,2-trifluoroethyl)-1H-pyrazolo[4,3-c]pyridin-6-yl)oxy)pyrrolidin-1-yl)-6-methoxypyridin-2-yl)pyrimidine-2,4(1H,3H)-dione] | 27.1 | 8.95 |
| Cc1nc(-c2c[nH]c(=O)[nH]c2=O)cc(N2C[C@H](Oc3cc(C(F)(F)F)ccn3)C(F)(F)C2)n1 [Example 13, 5-[6-[(4S)-3,3-difluoro-4-[[4-(trifluoromethyl)-2-pyridyl]oxy]pyrrolidin-1-yl]-2-methyl-pyrimidin-4-yl]-1H-pyrimidine-2,4-dione] | > 50 | 31.3 |
| Cc1nc(-c2c[nH]c(=O)[nH]c2=O)cc(N2C[C@H](Oc3cc(OC(F)F)ccn3)C(F)(F)C2)n1 [Example 14, (S)-6-(4-((4-(difluoromethoxy)pyridin-2-yl)oxy)-3,3-difluoropyrrolidin-1-yl)-2-methyl-[4,5′-bipyrimidine]-2′,4′ (1′H,3′H)-dione] | > 50 | 4.92 |
| Cc1nc(-c2c[nH]c(=O)[nH]c2=O)cc(N2C[C@H](Oc3cc(C(F)F)c(F)cn3)C(F)(F)C2)n1 [Example 15, (S)-6-(4-((4-(difluoromethyl)-5-fluoropyridin-2-yl)oxy)-3,3-difluoropyrrolidin-1-yl)-2-methyl-[4,5′-bipyrimidine]-2′,4′ (1′H,3′H)-dione] | > 50 | 10.2 |
| Cc1nc(-c2c[nH]c(=O)[nH]c2=O)cc(N2C[C@H](Oc3ccc(F)c(C(F)F)c3)C(F)(F)C2)n1 [Example 16, (S)-6-(4-(3-(difluoromethyl)-4-fluorophenoxy)-3,3-difluoropyrrolidin-1-yl)-2-methyl-[4,5′-bipyrimidine]-2′,4′ (1′ H,3′ H)-dione] | > 50 | 6.28 |
| Cc1nc(-c2c[nH]c(=O)[nH]c2=O)cc(N2C[C@H](Oc3ccc(F)c(OC(F)F)c3)C(F)(F)C2)n1 [Example 17, (S)-6-(4-(3-(difluoromethoxy)-4-fluorophenoxy)-3,3-difluoropyrrolidin-1-yl)-2-methyl-[4,5′-bipyrimidine]-2′,4′ (1′H,3′H)-dione] | > 50 | 4.21 |
| Cc1nc(-c2c[nH]c(=O)[nH]c2=O)cc(N2C[C@H](Oc3ccnc(C(F)(F)F)c3)C(F)(F)C2)n1 [Example 18, (S)-6-(3,3-difluoro-4-((2-(trifluoromethyl)pyridin-4-yl)oxy)pyrrolidin-1-yl)-2-methyl-[4,5′-bipyrimidine]-2′,4′ (1′ H,3′ H)-dione] | 32.9 | 5.7 |
| Cc1nc(-c2c[nH]c(=O)[nH]c2=O)cc(N2C[C@H](Oc3ccc4cnn(CC(F)(F)F)c4c3)C(F)(F)C2)n1 [Example 19, (S)-6-(3,3-difluoro-4-((1-(2,2,2-trifluoroethyl)-1H-indazol-6-yl)oxy)pyrrolidin-1-yl)-2-methyl-[4,5′-bipyrimidine]-2′,4′ (1′H,3′H)-dione] | 26 | 6.26 |
